Results taken from patent US11331299B2, “Medicinal use of serrulatane diterpenes” (The University of Sydney, priority 2016, dated 2022).
Read-outs that look alike come from different tables or passages of the source.

Experiments:
[1] = test system: 639-V; assay: OncoPanel cell proliferation assay (10-day); type: cell-based, human; conditions: for EC50 / GI50 / IC50: Homo sapiens, Bladder; for EC50: read-out: Cell Count EC50; for GI50: read-out: Cell Count GI50; for IC50: read-out: Cell Count IC50
[2] = target: T1, HMG-CoA Reductase (Homo sapiens, UniProt P04035); assay: HMG-CoA Reductase; type: biochemical; conditions: assay year 2015, read-out: % Control Response
T1 construct: host or cells: E. coli
T1 sequence (P04035 426-888 limits assumed): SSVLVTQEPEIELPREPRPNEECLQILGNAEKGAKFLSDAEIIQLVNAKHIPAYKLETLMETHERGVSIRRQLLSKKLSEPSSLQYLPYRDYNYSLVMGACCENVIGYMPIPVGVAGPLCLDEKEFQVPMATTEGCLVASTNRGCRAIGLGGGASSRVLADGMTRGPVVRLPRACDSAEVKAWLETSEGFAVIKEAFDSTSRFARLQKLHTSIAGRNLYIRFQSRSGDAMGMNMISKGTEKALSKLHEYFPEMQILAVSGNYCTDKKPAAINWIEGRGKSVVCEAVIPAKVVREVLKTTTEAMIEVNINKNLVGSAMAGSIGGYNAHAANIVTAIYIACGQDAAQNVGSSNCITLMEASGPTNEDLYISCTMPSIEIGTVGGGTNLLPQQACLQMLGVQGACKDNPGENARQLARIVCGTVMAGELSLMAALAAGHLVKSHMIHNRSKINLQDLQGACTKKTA
Description: The in vitro pharmacological studies were conducted by Eurofins PanLab (Taiwan) using the parameters shown in Table 13 with respect to appropriate literature references.

[3] = target: USP 16 (h) (Homo sapiens, UniProt Q9Y5T5); assay: Epigenetic enzyme assay, Ubiquitin modifying enzymes; type: biochemical; conditions: 10 μM; read-out: % Inhibition of Control Values
[4] = target: T2, CYP2C19 (Homo sapiens, UniProt P33261); assay: Cytochrome P450 Inhibition (CYP panel); type: in vitro ADME; conditions: human liver microsomes, probe omeprazole
T2 construct: Human liver microsomes; from tissue; host or cells: human liver microsomes

[5] = target: hDNMT3a (Homo sapiens, UniProt Q9Y6K1); assay: Epigenetic enzyme assay, DNA methyltransferases (DNMTs); type: biochemical; conditions: for inhibition at 10 µM: read-out: % Inhibition of Control Values
[6] = target: PRDM9 (h) (Homo sapiens, UniProt Q9NQV7); assay: Epigenetic enzyme assay, Methyltransferases (MTs); type: biochemical; conditions: for inhibition at 10 µM: read-out: % Inhibition of Control Values
[7] = target: T3, Glycine N-methyltransferase (h) (Homo sapiens, UniProt Q14749); assay: Epigenetic enzyme assay, Small molecule methyltransferases; type: biochemical; conditions: read-out: % Inhibition of Control Values
T3 sequence (Q14749 1-295): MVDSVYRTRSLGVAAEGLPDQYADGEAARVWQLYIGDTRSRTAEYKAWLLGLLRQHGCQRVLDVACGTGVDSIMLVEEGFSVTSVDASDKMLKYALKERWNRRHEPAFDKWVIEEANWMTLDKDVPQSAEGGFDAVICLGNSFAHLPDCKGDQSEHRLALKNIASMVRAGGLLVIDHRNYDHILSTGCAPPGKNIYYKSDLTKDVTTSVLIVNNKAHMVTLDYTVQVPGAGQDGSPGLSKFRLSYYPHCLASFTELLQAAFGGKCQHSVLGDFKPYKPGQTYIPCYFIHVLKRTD

[8] = target: HDAC3 (h) (Homo sapiens, UniProt O15379); assay: Epigenetic enzyme assay, Histone deacetylase (HDACs); type: biochemical; conditions: read-out: % Inhibition of Control Values
[9] = test system: H3K4 me2; assay: Cell-based detection methyl modifications; conditions: read-out: % Inhibition of Control Values
[10] = target: SETD2(h) (Homo sapiens, UniProt Q9BYW2); assay: Epigenetic enzyme assay, Methyltransferases (MTs); type: biochemical; conditions: for inhibition at 10 µM: read-out: % Inhibition of Control Values
[11] = test system: H3K27 me2-1; assay: Cell-based detection methyl modifications; conditions: read-out: % Inhibition of Control Values
[12] = test system: H3K27 me3; assay: Cell-based detection methyl modifications; conditions: read-out: % Inhibition of Control Values
[13] = target: PRMT3 (h) (Homo sapiens, UniProt O60678); assay: Epigenetic enzyme assay, Methyltransferases (MTs); type: biochemical; conditions: for inhibition at 10 µM: read-out: % Inhibition of Control Values
[14] = target: T4, HDAC10 (h) (Homo sapiens, UniProt Q969S8); assay: Epigenetic enzyme assay, Histone deacetylase (HDACs); type: biochemical; conditions: read-out: % Inhibition of Control Values
T4 sequence (Q969S8 1-669): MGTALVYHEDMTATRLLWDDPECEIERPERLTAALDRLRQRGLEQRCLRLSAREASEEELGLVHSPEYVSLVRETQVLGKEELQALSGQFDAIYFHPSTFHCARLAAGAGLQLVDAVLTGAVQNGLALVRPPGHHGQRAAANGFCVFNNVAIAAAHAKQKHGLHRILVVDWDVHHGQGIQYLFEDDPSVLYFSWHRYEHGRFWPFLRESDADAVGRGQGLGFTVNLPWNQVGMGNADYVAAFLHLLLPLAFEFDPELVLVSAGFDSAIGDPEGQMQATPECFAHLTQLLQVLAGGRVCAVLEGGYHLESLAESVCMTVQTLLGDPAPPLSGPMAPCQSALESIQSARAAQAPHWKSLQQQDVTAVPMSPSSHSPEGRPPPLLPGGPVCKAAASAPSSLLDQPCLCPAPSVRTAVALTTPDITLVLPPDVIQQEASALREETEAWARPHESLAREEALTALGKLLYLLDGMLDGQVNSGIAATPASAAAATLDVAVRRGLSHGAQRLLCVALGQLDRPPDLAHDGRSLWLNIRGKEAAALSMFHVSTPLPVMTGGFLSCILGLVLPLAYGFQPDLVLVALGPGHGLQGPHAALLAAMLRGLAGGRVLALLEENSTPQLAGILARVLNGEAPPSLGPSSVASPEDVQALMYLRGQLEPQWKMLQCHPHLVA

[15] = test system: H3K9 me2; assay: Cell-based detection methyl modifications; conditions: read-out: % Inhibition of Control Values
[16] = target: PRMT8 (h) (Homo sapiens, UniProt Q9NR22); assay: Epigenetic enzyme assay, Methyltransferases (MTs); type: biochemical; conditions: read-out: % Inhibition of Control Values
[17] = test system: RKO-AS45-1; assay: OncoPanel cell proliferation assay (10-day); type: cell-based, human; conditions: for EC50 / GI50 / IC50: Homo sapiens, RKOAS451, RKO-AS45-1, Colon; for EC50: read-out: Cell Count EC50; for GI50: read-out: Cell Count GI50; for IC50: read-out: Cell Count IC50
[18] = test system: H3K9 ac; assay: Cell-based detection methyl modifications; conditions: read-out: % Inhibition of Control Values
[19] = CYP2C19 (omeprazole sub.), Human liver microsomes, read-out: % Inhibition of Control Values

T2 sequence (P33261 whole entry): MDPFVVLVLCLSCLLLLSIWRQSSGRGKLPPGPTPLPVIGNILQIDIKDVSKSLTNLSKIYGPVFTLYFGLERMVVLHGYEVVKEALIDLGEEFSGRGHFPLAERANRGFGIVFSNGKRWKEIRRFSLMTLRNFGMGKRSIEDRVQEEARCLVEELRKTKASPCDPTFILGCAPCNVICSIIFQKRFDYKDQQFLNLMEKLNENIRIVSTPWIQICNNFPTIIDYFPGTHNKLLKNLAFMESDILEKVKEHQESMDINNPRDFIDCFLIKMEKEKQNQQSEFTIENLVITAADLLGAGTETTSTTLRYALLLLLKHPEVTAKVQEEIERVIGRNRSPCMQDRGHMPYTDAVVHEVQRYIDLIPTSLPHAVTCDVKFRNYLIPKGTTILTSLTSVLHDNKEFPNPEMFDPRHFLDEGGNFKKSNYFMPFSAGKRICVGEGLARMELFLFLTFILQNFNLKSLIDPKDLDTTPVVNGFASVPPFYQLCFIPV
hDNMT3a, sequence (Q9Y6K1 whole entry, looked up): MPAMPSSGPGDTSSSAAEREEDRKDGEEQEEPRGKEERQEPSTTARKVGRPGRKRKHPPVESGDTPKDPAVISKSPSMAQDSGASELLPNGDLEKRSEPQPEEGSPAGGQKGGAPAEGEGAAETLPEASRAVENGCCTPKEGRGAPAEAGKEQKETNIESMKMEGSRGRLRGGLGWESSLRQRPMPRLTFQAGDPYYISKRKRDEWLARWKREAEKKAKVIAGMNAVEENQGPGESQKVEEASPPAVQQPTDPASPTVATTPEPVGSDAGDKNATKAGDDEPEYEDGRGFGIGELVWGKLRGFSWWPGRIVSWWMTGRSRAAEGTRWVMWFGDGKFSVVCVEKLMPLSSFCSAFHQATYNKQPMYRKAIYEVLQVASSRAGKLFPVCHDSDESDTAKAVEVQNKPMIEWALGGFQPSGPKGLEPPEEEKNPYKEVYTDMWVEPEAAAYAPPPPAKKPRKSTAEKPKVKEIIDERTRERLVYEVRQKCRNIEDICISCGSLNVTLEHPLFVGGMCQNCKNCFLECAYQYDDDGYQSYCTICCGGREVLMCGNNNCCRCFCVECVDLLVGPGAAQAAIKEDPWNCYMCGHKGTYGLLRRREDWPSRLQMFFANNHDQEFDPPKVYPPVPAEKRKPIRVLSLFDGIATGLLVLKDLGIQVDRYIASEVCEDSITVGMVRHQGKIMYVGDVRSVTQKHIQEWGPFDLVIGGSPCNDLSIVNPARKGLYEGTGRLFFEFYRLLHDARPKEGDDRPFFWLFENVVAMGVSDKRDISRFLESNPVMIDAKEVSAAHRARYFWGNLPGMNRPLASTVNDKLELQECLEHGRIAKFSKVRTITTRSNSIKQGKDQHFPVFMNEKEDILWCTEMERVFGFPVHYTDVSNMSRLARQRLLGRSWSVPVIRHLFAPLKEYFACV
PRDM9 (h), sequence (Q9NQV7 whole entry): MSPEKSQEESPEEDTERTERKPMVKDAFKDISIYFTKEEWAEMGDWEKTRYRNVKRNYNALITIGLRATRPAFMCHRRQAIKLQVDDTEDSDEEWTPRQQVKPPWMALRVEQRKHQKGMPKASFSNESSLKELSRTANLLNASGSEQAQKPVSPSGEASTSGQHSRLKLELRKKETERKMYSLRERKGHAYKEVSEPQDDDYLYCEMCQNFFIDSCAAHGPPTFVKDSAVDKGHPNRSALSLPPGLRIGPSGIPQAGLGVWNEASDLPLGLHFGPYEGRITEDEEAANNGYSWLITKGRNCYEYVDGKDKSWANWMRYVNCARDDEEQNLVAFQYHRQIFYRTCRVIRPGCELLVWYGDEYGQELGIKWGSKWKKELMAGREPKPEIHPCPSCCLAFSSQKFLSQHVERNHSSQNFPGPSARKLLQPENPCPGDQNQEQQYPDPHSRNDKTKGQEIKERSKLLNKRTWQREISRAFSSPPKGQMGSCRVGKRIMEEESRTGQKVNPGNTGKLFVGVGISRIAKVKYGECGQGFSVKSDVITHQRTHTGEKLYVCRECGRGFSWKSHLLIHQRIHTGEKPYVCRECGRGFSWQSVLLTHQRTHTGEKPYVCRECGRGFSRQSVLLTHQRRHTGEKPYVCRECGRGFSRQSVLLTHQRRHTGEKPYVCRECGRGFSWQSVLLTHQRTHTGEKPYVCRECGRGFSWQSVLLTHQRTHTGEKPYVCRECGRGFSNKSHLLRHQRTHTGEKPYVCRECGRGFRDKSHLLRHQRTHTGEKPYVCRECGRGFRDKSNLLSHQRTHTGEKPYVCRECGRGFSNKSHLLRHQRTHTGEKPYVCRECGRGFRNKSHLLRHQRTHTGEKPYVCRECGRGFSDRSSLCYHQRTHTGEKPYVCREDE
SETD2(h), sequence (Q9BYW2 whole entry): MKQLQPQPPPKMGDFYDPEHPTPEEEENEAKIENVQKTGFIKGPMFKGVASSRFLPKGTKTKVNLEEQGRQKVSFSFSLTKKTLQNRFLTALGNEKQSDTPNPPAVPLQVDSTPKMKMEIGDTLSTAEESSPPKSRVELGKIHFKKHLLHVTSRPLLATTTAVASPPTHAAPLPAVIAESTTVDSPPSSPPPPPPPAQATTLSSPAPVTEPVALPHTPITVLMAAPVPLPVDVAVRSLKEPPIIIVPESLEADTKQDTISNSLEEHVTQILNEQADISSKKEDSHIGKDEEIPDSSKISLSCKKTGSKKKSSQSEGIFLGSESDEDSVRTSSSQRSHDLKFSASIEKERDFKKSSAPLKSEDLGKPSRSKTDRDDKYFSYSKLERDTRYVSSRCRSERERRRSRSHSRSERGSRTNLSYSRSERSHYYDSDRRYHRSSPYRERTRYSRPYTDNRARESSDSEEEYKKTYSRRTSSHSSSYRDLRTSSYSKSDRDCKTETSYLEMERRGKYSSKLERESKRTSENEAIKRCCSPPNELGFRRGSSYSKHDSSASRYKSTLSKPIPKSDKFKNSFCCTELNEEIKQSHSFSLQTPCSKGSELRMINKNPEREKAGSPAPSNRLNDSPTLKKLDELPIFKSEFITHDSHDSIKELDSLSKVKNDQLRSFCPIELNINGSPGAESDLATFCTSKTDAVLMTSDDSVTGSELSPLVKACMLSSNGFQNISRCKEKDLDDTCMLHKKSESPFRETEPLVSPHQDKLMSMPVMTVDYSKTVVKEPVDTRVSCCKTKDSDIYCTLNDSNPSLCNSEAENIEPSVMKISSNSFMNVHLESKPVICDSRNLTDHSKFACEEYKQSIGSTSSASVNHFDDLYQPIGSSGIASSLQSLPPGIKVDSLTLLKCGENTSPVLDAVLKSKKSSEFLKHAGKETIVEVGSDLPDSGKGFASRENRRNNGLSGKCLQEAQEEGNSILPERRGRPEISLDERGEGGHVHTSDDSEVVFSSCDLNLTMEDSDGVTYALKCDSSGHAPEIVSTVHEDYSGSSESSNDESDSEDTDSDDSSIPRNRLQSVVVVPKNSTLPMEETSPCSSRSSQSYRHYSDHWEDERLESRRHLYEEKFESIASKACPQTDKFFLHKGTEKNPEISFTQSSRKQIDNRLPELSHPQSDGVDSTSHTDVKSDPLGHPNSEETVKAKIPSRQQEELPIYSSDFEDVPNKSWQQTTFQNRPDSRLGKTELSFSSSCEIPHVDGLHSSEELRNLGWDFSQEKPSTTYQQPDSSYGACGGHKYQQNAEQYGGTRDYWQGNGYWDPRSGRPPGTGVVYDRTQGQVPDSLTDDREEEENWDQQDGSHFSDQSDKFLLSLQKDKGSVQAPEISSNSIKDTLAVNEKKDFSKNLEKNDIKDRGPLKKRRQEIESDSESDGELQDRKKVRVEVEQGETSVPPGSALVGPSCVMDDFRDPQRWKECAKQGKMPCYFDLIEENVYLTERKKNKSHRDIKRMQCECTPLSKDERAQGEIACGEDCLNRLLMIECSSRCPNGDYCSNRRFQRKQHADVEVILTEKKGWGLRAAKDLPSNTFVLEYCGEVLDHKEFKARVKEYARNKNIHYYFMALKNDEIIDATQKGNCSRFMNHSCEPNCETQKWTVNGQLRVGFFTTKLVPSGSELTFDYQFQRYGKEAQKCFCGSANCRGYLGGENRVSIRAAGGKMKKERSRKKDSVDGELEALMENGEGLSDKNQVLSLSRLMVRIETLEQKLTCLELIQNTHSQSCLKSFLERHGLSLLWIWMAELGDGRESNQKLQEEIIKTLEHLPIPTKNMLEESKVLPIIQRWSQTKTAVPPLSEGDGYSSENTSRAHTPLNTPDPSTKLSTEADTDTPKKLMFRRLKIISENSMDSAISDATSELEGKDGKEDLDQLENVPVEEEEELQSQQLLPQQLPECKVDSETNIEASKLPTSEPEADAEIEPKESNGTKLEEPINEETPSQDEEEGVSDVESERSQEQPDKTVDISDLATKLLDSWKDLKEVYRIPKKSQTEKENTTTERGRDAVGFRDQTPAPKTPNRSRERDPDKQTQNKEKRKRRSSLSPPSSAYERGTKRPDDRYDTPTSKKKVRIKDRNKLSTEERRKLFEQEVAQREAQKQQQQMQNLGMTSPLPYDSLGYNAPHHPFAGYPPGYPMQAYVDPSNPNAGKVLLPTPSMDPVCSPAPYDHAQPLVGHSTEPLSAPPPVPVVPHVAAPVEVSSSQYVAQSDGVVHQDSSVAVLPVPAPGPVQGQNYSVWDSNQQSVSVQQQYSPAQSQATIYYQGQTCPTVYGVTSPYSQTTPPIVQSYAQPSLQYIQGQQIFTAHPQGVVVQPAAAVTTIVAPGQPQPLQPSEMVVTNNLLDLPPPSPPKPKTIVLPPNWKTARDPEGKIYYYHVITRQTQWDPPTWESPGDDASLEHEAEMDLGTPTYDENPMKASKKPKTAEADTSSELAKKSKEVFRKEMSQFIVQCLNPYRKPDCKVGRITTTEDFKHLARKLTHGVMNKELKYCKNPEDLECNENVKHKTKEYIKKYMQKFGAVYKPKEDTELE

CC(C)=CCC[C@H](CO)[C@@H]1CC[C@@H](C)c2c1cc(C)c(O)c2O [Compound 1, 7,8,18-trihydroxyserrulat-14-ene]
Relative cell count (%) Mean ([1]; 3.00E+00 microM): 15.8% | Relative cell count (%) Mean ([1]; 3.00E+01 microM): 0.0% | Relative cell count (%) Mean ([1]; 3.01E−01 microM): 92.6% | Relative cell count (%) Mean ([1]; 3.01E−02 microM): 103.6% | Relative cell count (%) Mean ([1]; 3.02E−03 microM): 96.1% | Relative cell count (%) Mean ([1]; 9.49E+00 microM): 0.3% | Relative cell count (%) Mean ([1]; 9.51E−01 microM): 91.9% | Relative cell count (%) Mean ([1]; 9.52E−02 microM): 91.6% | Relative cell count (%) Mean ([1]; 9.53E−03 microM): 101.2% | Relative cell count (%) Mean ([1]; 9.55E−04 microM): 92.0% | EC50 [1]: 2.01 µM | GI50 [1]: 2.01 µM | IC50 [1]: 2.01 µM | remaining activity at 10 µM [2]: 29% | inhibition at 10 µM [3]: 11% | inhibition at 1 µM ([4]; read-out: % inhibition): 25 to 37% | inhibition at 1 µM [4, 19]: 37% | inhibition at 10 µM [4, 19]: 90% | inhibition at 10 µM [5]: 3% | inhibition at 10 µM [6]: 9% | inhibition at 10 µM [7]: 55% | inhibition at 10 µM [8]: 1% | inhibition at 10 µM [9]: -5% | inhibition at 10 µM [10]: -9% | inhibition at 10 µM [11]: -2% | inhibition at 10 µM [12]: -8% | inhibition at 10 µM [13]: 22% | inhibition at 10 µM [14]: 1% | inhibition at 10 µM [15]: 1% | inhibition at 10 µM [16]: 5% | Relative cell count (%) Mean ([17]; 3.00E+00 microM): 7.6% | Relative cell count (%) Mean ([17]; 3.00E+01 microM): 0.1% | Relative cell count (%) Mean ([17]; 3.01E−01 microM): 90.0% | Relative cell count (%) Mean ([17]; 3.01E−02 microM): 86.2% | Relative cell count (%) Mean ([17]; 3.02E−03 microM): 83.7% | Relative cell count (%) Mean ([17]; 9.49E+00 microM): 0.1% | Relative cell count (%) Mean ([17]; 9.51E−01 microM): 72.1% | Relative cell count (%) Mean ([17]; 9.52E−02 microM): 80.5% | Relative cell count (%) Mean ([17]; 9.53E−03 microM): 88.3% | Relative cell count (%) Mean ([17]; 9.55E−04 microM): 95.4% | EC50 [17]: 1.5 µM | GI50 [17]: 1.5 µM | IC50 [17]: 1.5 µM | inhibition at 10 µM [18]: 17%

CC(C)=CCC[C@@H]1C(O)Oc2c(C)cc(O)c3c2[C@H]1CC[C@H]3C (stereo partly drawn) [Compound 2, 5,18-epoxyserrulat-14-en-8,18-diol]
EC50 [1]: 6.54 µM | GI50 [1]: 7.98 µM | IC50 [1]: 8 µM | remaining activity at 10 µM [2]: 27% | inhibition at 10 µM [3]: 14% | inhibition at 1 µM ([4]; read-out: % inhibition): 25 to 37% | inhibition at 1 µM [4, 19]: 34% | inhibition at 10 µM [4, 19]: 73% | inhibition at 10 µM [5]: 3% | inhibition at 10 µM [6]: 5% | inhibition at 10 µM [7]: 5% | inhibition at 10 µM [8]: 1% | inhibition at 10 µM [9]: -1% | inhibition at 10 µM [10]: -4% | inhibition at 10 µM [11]: 3% | inhibition at 10 µM [12]: -7% | inhibition at 10 µM [13]: 50% | inhibition at 10 µM [14]: 3% | inhibition at 10 µM [15]: 11% | inhibition at 10 µM [16]: 24% | EC50 [17]: 9.64 µM | GI50 [17]: 9.62 µM | IC50 [17]: 9.64 µM | inhibition at 10 µM [18]: 3%

CC(C)=CCC[C@@H]1COc2c(C)cc(O)c3c2[C@H]1CC[C@H]3C [Compound 3, 5,18-epoxy-8-hydroxyserrulat-14-ene]
remaining activity at 10 µM [2]: 24% | inhibition at 10 µM [3]: 12% | inhibition at 10 µM [5]: -31% | inhibition at 10 µM [6]: 4% | inhibition at 10 µM [7]: -11% | inhibition at 10 µM [8]: 3% | inhibition at 10 µM [9]: -9% | inhibition at 10 µM [10]: -11% | inhibition at 10 µM [11]: 2% | inhibition at 10 µM [12]: 0% | inhibition at 10 µM [13]: 14% | inhibition at 10 µM [14]: 6% | inhibition at 10 µM [15]: 20% | inhibition at 10 µM [16]: -26% | inhibition at 10 µM [18]: -1%

CC(C)=CCC[C@H](C)[C@@H]1CC[C@@H](C)c2c1cc(C)c(O)c2O [Compound 4, 7,8-dihydroxyserrulat-14-ene]
EC50 [1]: 12 µM | GI50 [1]: 12 µM | IC50 [1]: 12 µM | inhibition at 1 µM ([4]; read-out: % inhibition): 25 to 37% | inhibition at 1 µM [4, 19]: 25% | inhibition at 10 µM [4, 19]: 78% | EC50 [17]: 12.8 µM | GI50 [17]: 12.8 µM | IC50 [17]: 12.8 µM

Nc1ncnc2c1ncn2[C@@H]1O[C@H](CSCC[C@H](N)C(=O)O)[C@@H](O)[C@H]1O [SAH]
IC50 ([5]; read-out: Reference IC50): 0.052 µM | IC50 ([6]; read-out: Reference IC50): 370 µM | IC50 ([10]; read-out: Reference IC50): 1.2 µM | IC50 ([13]; read-out: Reference IC50): 0.86 µM
